Values quoted from earlier work as cited in patent US20160220512A1, “MODIFIED RELEASE PHARMACEUTICAL FORMULATIONS” (RUBICON RESEARCH PRIVATE LIMITED, priority 2013, published 2016).

Key:
[1] = memantine and its salts
[2] = test system: N-methyl d-aspartate (NMDA) receptor; details: uncompetitive NMDA receptor antagonist

Compound: CC12CC3CC(C)(C1)CC(N)(C3)C2 [Memantine, 1-amino-3,5-dimethyladamantane]
- BCS classification [1]: BCS Class I
- permeability [1]: highly permeable
- solubility [1]: highly soluble
- affinity for the receptor [2]: moderate affinity
